Data published in patent US9511134B2, “Inducing immune responses to influenza virus using polypeptide and nucleic acid compositions” (priority 2006, dated 2016).
Read-outs that look alike come from different tables or passages of the source.

Assays:
[1] = biological target: T1, DRB1*0301 (Homo sapiens, UniProt P01903+P01911, A100K/A102G/A103R/A169T/F55Y/I96L/K41T/L162R/M171V/P40S/Q125H/Q178H/Q39Y/R42S/S66N/T106N/T262R/W38E/Y61H); experiment: biochemical; assay type: binding
T1 construct: made in house; host or cells: EBV-transformed homozygous human B cell lines, transfected fibroblasts or single-allele 721.221 transfectants
T1 sequence (P01903 26-254, other chains not shown): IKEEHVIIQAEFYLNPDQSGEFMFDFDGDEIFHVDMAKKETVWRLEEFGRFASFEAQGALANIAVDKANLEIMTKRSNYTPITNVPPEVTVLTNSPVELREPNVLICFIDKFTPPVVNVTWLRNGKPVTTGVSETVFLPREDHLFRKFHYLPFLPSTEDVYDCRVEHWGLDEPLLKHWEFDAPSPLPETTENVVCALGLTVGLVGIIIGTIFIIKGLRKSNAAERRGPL

[2] = biological target: T2, DRB1*1501 (Homo sapiens, UniProt P01903+P01911); experiment: biochemical; assay type: binding; details: read-out: IC50 nM to purified HLA DRB1*1501
T2 construct: made in house; host or cells: EBV-transformed homozygous human B cell lines, transfected fibroblasts or single-allele 721.221 transfectants

[3] = biological target: T3, DRB4*0101 (Homo sapiens, UniProt P01903+P13762, G164S); experiment: biochemical; assay type: binding; details: IC50 nM to purified HLA DRB4*0101
T3 construct: made in house; host or cells: EBV-transformed homozygous human B cell lines, transfected fibroblasts or single-allele 721.221 transfectants

[4] = biological target: T4, DRB1*0101 (Homo sapiens, UniProt P01903+P01911, A100R/D57E/F55L/F60I/F76Y/I96L/L162R/M171V/P40L/Q125E/R42F/V115G/Y59C); experiment: biochemical; assay type: binding; details: IC50 nM to purified HLA DRB1*0101
T4 construct: made in house; host or cells: EBV-transformed homozygous human B cell lines, transfected fibroblasts or single-allele 721.221 transfectants

[5] = biological target: T5, DRB1*0401 (Homo sapiens, UniProt P01903+P01911, A100K/A169T/F76Y/I96L/K127E/L162R/M171V/N62H/P40V/Q125Y/R42H/S133A/S149N/S66Y/V115G/V209L/W38E); experiment: biochemical; assay type: binding; details: read-out: IC50 nM to purified HLA DRB1*0401
T5 construct: made in house; host or cells: EBV-transformed homozygous human B cell lines, transfected fibroblasts or single-allele 721.221 transfectants

[6] = biological target: DRB1*1302 (Homo sapiens, UniProt P01903+P01911, A100E/A169T/K41T/L162R/M171V/P40S/Q125H/Q178H/Q39Y/Q99D/R42S/S66N/T262R/V115G/W38E/Y61H); experiment: biochemical; assay type: binding; details: read-out: IC50 nM to purified HLA DRB1*1302
Chain of DRB1*1302 (P01903 26-254 limits assumed, other chains not shown): as the sequence (P01903 26-254, other chains not shown) above

[7] = test system: CD4+ PBMC; assay type: cell-based, human
[8] = biological target: DRB1*0404 (Homo sapiens, UniProt P01903+P01911, A100R/A169T/F76Y/I96L/K127E/L162R/M171V/N62H/P40V/Q125Y/R42H/S133A/S149N/S66Y/V209L/W38E); experiment: biochemical; assay type: binding; details: IC50 nM to purified HLA DRB1*0404
[9] = IFNγ ELISPOT, five day expansion with peptide pool, CD8-depleted

CC[C@H](C)[C@H](NC(=O)[C@H](CS)NC(=O)[C@@H](NC(=O)[C@H](CCC(N)=O)NC(=O)[C@H](CC(=O)O)NC(=O)[C@H](CO)NC(=O)[C@H](CCCCN)NC(=O)[C@@H](NC(=O)[C@H](CC(C)C)NC(=O)[C@H](CO)NC(=O)[C@@H](N)C(C)C)C(C)C)[C@@H](C)CC)C(=O)NCC(=O)N[C@@H](Cc1ccc(O)cc1)C(=O)N[C@@H](Cc1c[nH]cn1)C(=O)N[C@@H](C)C(=O)O [Flu.HA.11]
IC50 [1]: 511 nM | IC50 [2]: 14500 nM | IC50 [3]: 32 nM

CC(C)C[C@H](NC(=O)CNC(=O)[C@@H](NC(=O)[C@H](C)NC(=O)[C@H](CC(C)C)NC(=O)[C@@H](NC(=O)[C@H](CC(C)C)NC(=O)[C@H](CCCNC(=N)N)NC(=O)[C@H](CC(N)=O)NC(=O)[C@H](CO)NC(=O)[C@H](CCCCN)NC(=O)[C@@H](NC(=O)[C@H](Cc1ccc(O)cc1)NC(=O)[C@H](CCCCN)NC(=O)[C@@H]1CCCN1C(=O)[C@@H](N)CS)C(C)C)C(C)C)[C@@H](C)O)C(=O)O [Flu.HA.318]
IC50 [4]: 2760 nM | IC50 [1]: 2920 nM | IC50 [5]: 868 nM | IC50 [6]: 48 nM | IC50 [2]: 230 nM | IC50 [3]: 287 nM

CC[C@H](C)[C@H](NC(=O)CNC(=O)[C@@H](N)CCCCN)C(=O)N[C@@H](CC(C)C)C(=O)NCC(=O)N[C@@H](Cc1ccccc1)C(=O)N[C@H](C(=O)N[C@@H](Cc1ccccc1)C(=O)N[C@H](C(=O)N[C@@H](CC(C)C)C(=O)N[C@H](C(=O)N[C@H](C(=O)N1CCC[C@H]1C(=O)N[C@@H](CO)C(=O)N[C@@H](CCC(=O)O)C(=O)O)C(C)C)[C@@H](C)O)[C@@H](C)O)C(C)C [Flu.M1.60]
Human influenza epitope-specific immune response, donor 753 [7]: Positive (key: Positive: Donors were considered positive for a peptide if the number of spots was over 3 times background as determined by responses to irrelevant peptides (non influenza)) | Human influenza epitope-specific immune response, donor 6018 [7]: Positive (key: Positive: Donors were considered positive for a peptide if the number of spots was over 3 times background as determined by responses to irrelevant peptides (non influenza)) | Human influenza epitope-specific immune response, donor AC02 [7]: Positive (key: Positive: Donors were considered positive for a peptide if the number of spots was over 3 times background as determined by responses to irrelevant peptides (non influenza)) | Human influenza epitope-specific immune response, donor AC08 [7]: Positive (key: Positive: Donors were considered positive for a peptide if the number of spots was over 3 times background as determined by responses to irrelevant peptides (non influenza))

CC[C@H](C)[C@H](NC(=O)[C@H](CCC(=O)O)NC(=O)[C@H](CCCNC(=N)N)NC(=O)[C@H](CCCCN)NC(=O)[C@H](CC(C)C)NC(=O)[C@H](CCCCN)NC(=O)[C@H](CCCNC(=N)N)NC(=O)[C@@H](N)Cc1ccc(O)cc1)C(=O)N[C@H](C(=O)N[C@@H](Cc1ccccc1)C(=O)N[C@@H](Cc1c[nH]cn1)C(=O)NCC(=O)N[C@@H](C)C(=O)N[C@@H](CCCCN)C(=O)N[C@@H](CCC(=O)O)C(=O)O)[C@@H](C)O [Flu.M1.103]
Human influenza epitope-specific immune response, donor 716 [7, 9]: Positive (Donors were considered positive for a peptide if the number of spots was over 3 times background as determined by responses to irrelevant peptides (non influenza)) | Human influenza epitope-specific immune response, donor AC08 [7, 9]: Positive (Donors were considered positive for a peptide if the number of spots was over 3 times background as determined by responses to irrelevant peptides (non influenza))

CC[C@H](C)[C@H](NC(=O)[C@H](CC(C)C)NC(=O)[C@@H]1CCCN1C(=O)[C@@H](N)CC(N)=O)C(=O)N[C@@H](CCCNC(=N)N)C(=O)N[C@@H](Cc1c[nH]cn1)C(=O)N[C@@H](CCC(=O)O)C(=O)N[C@@H](CC(N)=O)C(=O)N[C@@H](CCCNC(=N)N)C(=O)N[C@@H](CCSC)C(=O)N[C@H](C(=O)N[C@@H](CC(C)C)C(=O)N[C@@H](C)C(=O)N[C@@H](CO)C(=O)N[C@H](C(=O)O)[C@@H](C)O)C(C)C [Flu.M1.173]
Human influenza epitope-specific immune response, donor AC02 [7, 9]: Positive (Donors were considered positive for a peptide if the number of spots was over 3 times background as determined by responses to irrelevant peptides (non influenza))

CSCC[C@H](NC(=O)[C@H](C)NC(=O)[C@H](CCC(N)=O)NC(=O)[C@@H](NC(=O)[C@H](CCSC)NC(=O)[C@H](CCC(N)=O)NC(=O)[C@H](CCCNC(=N)N)NC(=O)[C@H](C)NC(=O)[C@H](CCC(N)=O)NC(=O)[C@H](CO)NC(=O)[C@H](C)NC(=O)[C@@H](NC(=O)[C@H](CCC(=O)O)NC(=O)[C@H](CCSC)NC(=O)[C@H](C)N)C(C)C)C(C)C)C(=O)O [Flu.M1.205]
Human influenza epitope-specific immune response, donor 6018 [7, 9]: Positive (Donors were considered positive for a peptide if the number of spots was over 3 times background as determined by responses to irrelevant peptides (non influenza)) | Human influenza epitope-specific immune response, donor AC02 [7, 9]: Positive (Donors were considered positive for a peptide if the number of spots was over 3 times background as determined by responses to irrelevant peptides (non influenza))

CSCC[C@H](NC(=O)[C@H](Cc1c[nH]c2ccccc12)NC(=O)[C@@H](NC(=O)[C@H](CC(C)C)NC(=O)[C@H](CCC(N)=O)NC(=O)[C@H](CO)NC(=O)[C@@H](N)CCCCN)C(C)C)C(=O)N[C@@H](C)C(=O)N[C@@H](CS)C(=O)N[C@@H](Cc1c[nH]cn1)C(=O)N[C@@H](CO)C(=O)N[C@@H](C)C(=O)N[C@@H](C)C(=O)N[C@@H](Cc1ccccc1)C(=O)N[C@@H](CCC(=O)O)C(=O)O [Flu.NF.328]
Human influenza epitope-specific immune response, donor 753 [7, 9]: Positive (Donors were considered positive for a peptide if the number of spots was over 3 times background as determined by responses to irrelevant peptides (non influenza))

CC[C@H](C)[C@H](NC(=O)[C@H](CC(C)C)NC(=O)[C@H](CCC(=O)O)NC(=O)[C@H](CCSC)NC(=O)[C@@H](NC(=O)[C@H](CCSC)NC(=O)[C@@H](NC(=O)CNC(=O)[C@@H](N)C(C)C)[C@@H](C)O)C(C)C)C(=O)N[C@@H](CCCNC(=N)N)C(=O)N[C@@H](CCSC)C(=O)N[C@H](C(=O)N[C@@H](CCCCN)C(=O)N[C@@H](CCCNC(=N)N)C(=O)NCC(=O)O)[C@@H](C)CC [Flu.NP.189]
Human influenza epitope-specific immune response, donor 753 [7, 9]: Positive (Donors were considered positive for a peptide if the number of spots was over 3 times background as determined by responses to irrelevant peptides (non influenza)) | Human influenza epitope-specific immune response, donor 6018 [7, 9]: Positive (Donors were considered positive for a peptide if the number of spots was over 3 times background as determined by responses to irrelevant peptides (non influenza)) | Human influenza epitope-specific immune response, donor AC08 [7, 9]: Positive (Donors were considered positive for a peptide if the number of spots was over 3 times background as determined by responses to irrelevant peptides (non influenza))

CC[C@H](C)[C@H](NC(=O)[C@@H](N)CC(=O)O)C(=O)N[C@@H](CC(C)C)C(=O)N[C@@H](CCSC)C(=O)N[C@@H](CCCNC(=N)N)C(=O)N[C@@H](CCSC)C(=O)N[C@@H](CO)C(=O)N[C@@H](CCCCN)C(=O)N[C@@H](CCSC)C(=O)N[C@@H](CCC(N)=O)C(=O)N[C@@H](CC(C)C)C(=O)NCC(=O)N[C@@H](CO)C(=O)N[C@@H](CO)C(=O)N[C@@H](CO)C(=O)O [Flu.NS2.87]
IC50 [4]: 2140 nM | IC50 [5]: 717 nM | IC50 [6]: 423 nM | IC50 [2]: 748 nM | IC50 [3]: 11 nM

CSCC[C@H](NC(=O)[C@H](CCCNC(=N)N)NC(=O)[C@H](CCSC)NC(=O)[C@@H](N)C(C)C)C(=O)NCC(=O)N[C@@H](CC(=O)O)C(=O)N[C@@H](CC(C)C)C(=O)N[C@@H](Cc1c[nH]cn1)C(=O)N[C@@H](CO)C(=O)N[C@@H](CC(C)C)C(=O)N[C@@H](CCC(N)=O)C(=O)N[C@@H](CC(N)=O)C(=O)N[C@@H](CCCNC(=N)N)C(=O)N[C@@H](CC(N)=O)C(=O)NCC(=O)O [Flu.NS2.125]
IC50 [4]: 249 nM | IC50 [5]: 448 nM | IC50 [6]: 1370 nM | IC50 [2]: 372 nM | IC50 [3]: 8820 nM

CC[C@H](C)[C@H](NC(=O)CNC(=O)[C@H](CO)NC(=O)[C@@H](NC(=O)CNC(=O)[C@H](Cc1ccccc1)NC(=O)[C@H](CO)NC(=O)[C@@H]1CCCN1C(=O)[C@@H](N)CC(C)C)C(C)C)C(=O)N[C@@H](CC(N)=O)C(=O)N[C@@H](CCC(=O)O)C(=O)N[C@@H](CO)C(=O)N[C@@H](C)C(=O)N[C@@H](CC(=O)O)C(=O)N[C@@H](CCSC)C(=O)O [Flu.PB1.512]
IC50 [5]: 44 nM | IC50 [8]: 39 nM | IC50 [3]: 48 nM
